Test results as given in patent publication US8703811B2, “Small molecule inhibitors of Plasmodium falciparum dihydroorotate dehydrogenase” (Genzyme Corporation, priority 2008, dated 2014).
Read-outs that look alike come from different tables or passages of the source.

What was measured:
pfDHODH = pfDHODH (Plasmodium falciparum (isolate 3D7), UniProt Q08210); assay: DHODH chromogen reduction (DCIP) assay, pfDHODH; format: biochemical, P. falciparum
Excerpt: Type 2 DHODH activity was monitored with either the direct assay measuring the formation of orotate or via a chromogen reduction assay using DCIP. Although the extinction coefficient and absorption wavelength are preferable for the chromogen reduction assay, the inorganic electron acceptor DCIP can be utilized by DHODH as the final electron acceptor in lieu of CoQn when the endogenous substrate is at a low concentration. As such, the direct assay was used to measure the binding affinity of pfDHODH to CoQD and L-DHO. The enzymatic reaction was performed by varying the L-DHO concentration (1-400 μM) or CoQD concentration (1-200 μM) while keeping the other substrate constant and in excess.
Substrate specificity and enzyme inhibition data was analyzed with GraphPad Prism Version 4 for Windows (GraphPad Software). Kinetic constants were calculated by non-linear regression fitting of the data to the Michaelis-Menten equation [36]. IC50 values were determined by non-linear regression fitting of the data to Equation 1: […]

P. falciparum 3D7 = assay: Inhibition of in vitro P. falciparum culture, [3H]-hypoxanthine uptake, 3D7; format: cell-based; conditions: read-out: 3D7 EC50
Protocol: (§1) P. falciparum strains D10, 3D7, HB3, and Dd2 were obtained from the Malaria Research and Reference Reagent Resource Center (Manassas, Va.). The parasite strains were maintained in vitro by method of Trager and Jensen. The inhibition of P. falciparum growth in the presence of drug was assessed by the relative reduction of [^3H]-hypoxanthine uptake as previously described. Inhibition data were fitted to Equation 1 using non-linear regression analysis except that the relative velocity of parasite growth was substituted for the rate of product formation.

P. falciparum Dd2 = assay: Inhibition of in vitro P. falciparum culture, [3H]-hypoxanthine uptake, Dd2; format: cell-based; conditions: read-out: Dd2 EC50
Protocol: as §1

[1] = Table 2b, read-out: pfDHODH IC50
[2] = Plasmodium falciparum, 3D7, Table 2b
[3] = Plasmodium falciparum, DD2, Table 2b

Chain of pfDHODH (Q08210 159-565 limits assumed): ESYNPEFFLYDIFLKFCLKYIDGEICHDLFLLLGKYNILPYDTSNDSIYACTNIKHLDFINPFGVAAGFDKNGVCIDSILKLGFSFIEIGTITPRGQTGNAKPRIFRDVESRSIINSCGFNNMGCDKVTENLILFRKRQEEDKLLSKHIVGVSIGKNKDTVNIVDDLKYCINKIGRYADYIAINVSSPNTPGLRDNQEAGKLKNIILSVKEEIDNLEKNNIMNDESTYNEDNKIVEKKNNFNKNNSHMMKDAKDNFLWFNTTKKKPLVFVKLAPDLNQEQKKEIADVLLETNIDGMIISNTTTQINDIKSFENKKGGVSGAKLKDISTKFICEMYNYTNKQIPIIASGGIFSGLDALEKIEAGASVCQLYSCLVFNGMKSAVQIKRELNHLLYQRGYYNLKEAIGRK

| SMILES | IC50 (pfDHODH; [1]) | EC50 (P. falciparum 3D7; [2]) | EC50 (P. falciparum Dd2; [3]) | IC50 (pfDHODH; pfDHODH IC50, Table 2b) | EC50 (P. falciparum 3D7; Table 2b) | EC50 (P. falciparum Dd2; Table 2b) |
| --- | --- | --- | --- | --- | --- | --- |
| CCCNC(=O)c1ccc(-n2ccnc2)s1 [Compound 15, 5-(1H-imidazol-1-yl)-N-propylthiophene-2-carboxamide] | 165 µM | > 10 µM | > 10 µM | – | – | – |
| CCCNC(=O)c1ccc(N2CCSc3ccccc32)s1 [Compound 18, 5-(2H-benzo[b][1,4]thiazin-4(3H)-yl)-N-propylthiophene-2-carboxamide] | 9.2 µM | > 10 µM | > 10 µM | – | – | – |
| CCNC(=O)c1cccc(-n2c(C)nc3cc(F)ccc32)c1 [Compound 92] | > 30 µM | > 1 µM | > 1 µM | – | – | – |
| CCCN(C)C(=O)c1ccc(-n2cnc3ccccc32)s1 [Compound 48] | > 30 µM | > 5 µM | > 5 µM | – | – | – |
| O=C(NC1CC1)c1ccc(-n2c(O)nc3ccccc32)s1 [Compound 45] | > 30 µM | 5 µM | 5 µM | – | – | – |
| CCCCC(O)c1ccc(-n2cnc3ccccc32)s1 (centres unmarked) [Compound 85, 1-[5-(1H-benzimidazol-1-yl)-2-thienyl]pentan-1-ol] | > 30 µM | 20 µM | 5.9 µM | – | – | – |
| CCCC/C(=N\O)c1ccc(-n2cnc3ccccc32)s1 [Compound 86, 1-[5-(1H-benzimidazol-1-yl)-2-thienyl]pentan-1-one oxime] | > 30 µM | 10 µM | 20 µM | – | – | – |
| c1ccc2oc(-c3ccc(-c4nc5ccccc5o4)s3)nc2c1 [Compound 83] | > 30 µM | > 5 µM | > 5 µM | – | – | – |
| Cn1c(-c2ccc(C(=O)NC3CC3)s2)nc2ccccc21 [Compound 79] | > 30 µM | > 5 µM | > 5 µM | – | – | – |
| CCCC/C(=N\OC)c1ccc(-n2cnc3ccccc32)s1 [Compound 89, 1-[5-(1H-benzimidazol-1-yl)-2-thienyl]pentan-1-one O-methyloxime] | > 30 µM | 5.3 µM | 4.4 µM | – | – | – |
| O=C(c1ccc(-n2cnc3ccccc32)s1)N1CCCCC1 [Compound 34] | > 30 µM | > 20 µM | > 20 µM | – | – | – |
| Cc1nc2cc3ccccc3cc2n1-c1ccc(C(=O)NC2CC2)s1 [Compound 93] | 0.035 µM | 0.017 µM | 0.019 µM | – | – | – |
| CCCNC(=O)c1ccc(N2CCCC2)s1 [Compound 14, N-propyl-5-(pyrrolidin-1-yl)thiophene-2-carboxamide] | > 250 µM | > 10 µM | > 10 µM | – | – | – |
| Cc1nc2cc(Cl)ccc2n1-c1ccc(C(=O)NC2CC2)s1 [Compound 41] | – | – | – | 0.04 µM | 0.067 µM | 0.083 µM |
| Cc1nc2ccc(-c3ccccc3)cc2n1-c1ccc(C(=O)NC2CC2)s1 [Compound 98] | 0.089 µM | – | – | – | – | – |
| O=C(c1ccc(-n2cnc3ccccc32)s1)N1CCCC1 [Compound 26] | > 30 µM | 10 µM | 20 µM | – | – | – |
| CC[C@@H](C)NC(=O)c1ccc(-n2cnc3ccccc32)s1 [Compound 47] | > 30 µM | > 5 µM | > 5 µM | – | – | – |
| Cc1nc2cc(OC(C)C)ccc2n1-c1ccc(C(=O)NC2CC2)s1 [Compound 94] | 0.121 µM | 0.051 µM | 0.061 µM | – | – | – |
| CCCNC(=O)c1ccc(N2CC(C)Sc3ccccc32)s1 (centres unmarked) [Compound 17, 5-(2-methyl-2H-benzo[b][1,4]thiazin-4(3H)-yl)-N-propylthiophene-2-carboxamide] | 19.1 µM | > 10 µM | > 10 µM | – | – | – |
| Cc1nc2cc(F)c(F)cc2n1-c1ccc(C(=O)NC2CC2)s1 [Compound 95] | 0.105 µM | – | – | – | – | – |
| CCCNC(=O)c1ccc(N2CCSc3ncccc32)s1 [Compound 21, 5-(2,3-dihydro-1H-pyrido[2,3-b][1,4]thiazin-1-yl)-N-propylthiophene-2-carboxamide] | 13.8 µM | > 10 µM | > 10 µM | – | – | – |
| Cc1nc2ccccc2n1-c1cc(C(=O)NC2CC2)cs1 [Compound 78, N-cyclopropyl-5-(2-methyl-1H-benzo[d]imidazol-1-yl)thiophene-3-carboxamide] | 1.7 µM | 1.02 µM | 2.05 µM | – | – | – |
| c1ccc2[nH]c(-c3ccc(-c4nc5ccccc5[nH]4)s3)nc2c1 [Compound 81] | > 30 µM | 5 µM | > 5 µM | – | – | – |

| SMILES | IC50 (pfDHODH; [1]) | EC50 (P. falciparum 3D7; [2]) | EC50 (P. falciparum Dd2; [3]) | IC50 (pfDHODH; pfDHODH IC50, Table 2b) | EC50 (P. falciparum 3D7; Table 2b) | EC50 (P. falciparum Dd2; Table 2b) |
| --- | --- | --- | --- | --- | --- | --- |
| O=C(NC1CC1)c1ccc(-c2nc3ccccc3o2)s1 [Compound 80] | > 30 µM | 2.58 µM | 1.71 µM | – | – | – |
| CCCC/C(=N/O)c1ccc(-n2cnc3ccccc32)s1 [Compound 87, 1-[5-(1H-benzimidazol-1-yl)-2-thienyl]pentan-1-one oxime] | > 30 µM | 40 µM | 10 µM | – | – | – |
| NC(=O)c1ccc(-n2cnc3ccccc32)s1 [Compound 28] | > 30 µM | > 40 µM | 20 µM | – | – | – |
| CCCNC(=O)c1ccc(N2CCOc3ccc(Cl)cc32)s1 [Compound 19, 5-(6-chloro-2H-benzo[b][1,4]oxazin-4(3H)-yl)-N-propylthiophene-2-carboxamide] | 7.5 µM | > 10 µM | > 10 µM | – | – | – |
| Cc1nc2cccnc2n1-c1ccc(C(=O)NC2CC2)s1 [Compound 72] | 1.12 µM | 0.364 µM | 0.52 µM | – | – | – |
| O=C(NC1CC1)c1ccc(-n2ncc3ccccc32)s1 [Compound 100, N-cyclopropyl-5-(1H-indazol-1-yl)thiophene-2-carboxamide] | > 30 µM | – | – | – | – | – |
| CCCNC(=O)c1ccc(-n2cnc3cncnc32)s1 [Compound 16, N-propyl-5-(9H-purin-9-yl)thiophene-2-carboxamide] | – | > 10 µM | > 10 µM | – | – | – |
| CCCCNC(=O)c1ccc(-n2cnc3ccccc32)s1 [Compound 29] | 28.6 µM | 20 µM | 7.3 µM | – | – | – |
| CC[C@H](C)NC(=O)c1ccc(-n2cnc3ccccc32)s1 [Compound 37] | 17.9 µM | > 20 µM | > 20 µM | – | – | – |
| Cn1c(-c2ccc(-c3nc4ccccc4n3C)s2)nc2ccccc21 [Compound 82] | > 30 µM | > 5 µM | > 5 µM | – | – | – |
| Cc1nc2cnccc2n1-c1ccc(C(=O)NC2CC2)s1 [Compound 71] | 3.08 µM | 3.7 µM | 6.3 µM | – | – | – |
| CCCC/C(=N/OC)c1ccc(-n2cnc3ccccc32)s1 [Compound 88, 1-[5-(1H-benzimidazol-1-yl)-2-thienyl]pentan-1-one O-methyloxime] | > 30 µM | 5.4 µM | 2.6 µM | – | – | – |
| Cc1nc(-c2ccc(Cl)cc2)cn1-c1ccc(C(=O)NC2CC2)s1 [Compound 96] | 0.252 µM | – | – | – | – | – |
| O=C(NC1CC1)c1ccc(-n2nnc3ccccc32)s1 [Compound 99, 5-(1H-benzo[d][1,2,3]triazol-1-yl)-N-cyclopropylthiophene-2-carboxamide] | 28 µM | – | – | – | – | – |
| Cc1nc2ccccc2n1-c1cscc1C(=O)NC1CC1 [Compound 77, N-cyclopropyl-4-(2-methyl-1H-benzo[d]imidazol-1-yl)thiophene-3-carboxamide] | > 30 µM | > 5 µM | > 5 µM | – | – | – |
| CCNC(=O)c1ccc(-n2c(C)nc3cc(F)ccc32)cc1 [Compound 91] | 2.87 µM | > 0.5 µM | > 0.5 µM | – | – | – |
| CCCNC(=O)c1ccc(N2CCOCC2)s1 [Compound 13, 5-morpholino-N-propylthiophene-2-carboxamide] | > 250 µM | > 10 µM | > 10 µM | – | – | – |
| CN(C)C(=O)c1ccc(-n2cnc3ccccc32)s1 [Compound 27] | > 30 µM | > 40 µM | > 40 µM | – | – | – |
| Cc1nc2ncccc2n1-c1ccc(C(=O)NC2CC2)s1 [Compound 73] | 4.77 µM | 1.3 µM | 2.4 µM | – | – | – |
| O=C(c1ccc(-n2cnc3ccccc32)s1)N1CCC1 [Compound 46] | 16.5 µM | 5 µM | 5 µM | – | – | – |
| CCCNC(=O)c1ccc(N2Cc3cccc(OC)c3Oc3ncccc32)s1 [Compound 22, 5-(10-methoxybenzo[f]pyrido[2,3-b][1,4]oxazepin-5(6H)-yl)-N-propylthiophene-2-carboxamide] | > 30 µM | > 10 µM | > 10 µM | – | – | – |
| CCCNC(=O)c1ccc(N2CCc3ccccc32)s1 [Compound 20, 5-(indolin-1-yl)-N-propylthiophene-2-carboxamide] | > 30 µM | > 10 µM | > 10 µM | – | – | – |
| Cc1nc2cc(-c3ccccc3)ccc2n1-c1ccc(C(=O)NC2CC2)s1 [Compound 97] | 0.178 µM | – | – | – | – | – |
